The target of data set [1] is Coagulation factor X (Homo sapiens, UniProt P00742). The data set can be described thus: In vitro inhibitory activity against Coagulation factor X was determined.
For data set [2], the target named is Prothrombin (Homo sapiens, UniProt P00734).
Data set [3] in a line: Plasma clearance in rats. In kind it is ADME, organism-based. The settings on record: rat.
A short description of data set [4]: Oral bioavailability in rat. In kind it is ADME, organism-based. The settings on record: in vivo.
The target in data set [5] is Kallikrein-1 (Homo sapiens, UniProt P06870). The data set can be described thus: In vitro inhibitory activity against kallikrein was determined.
Chain of Kallikrein-1 (P06870 whole entry): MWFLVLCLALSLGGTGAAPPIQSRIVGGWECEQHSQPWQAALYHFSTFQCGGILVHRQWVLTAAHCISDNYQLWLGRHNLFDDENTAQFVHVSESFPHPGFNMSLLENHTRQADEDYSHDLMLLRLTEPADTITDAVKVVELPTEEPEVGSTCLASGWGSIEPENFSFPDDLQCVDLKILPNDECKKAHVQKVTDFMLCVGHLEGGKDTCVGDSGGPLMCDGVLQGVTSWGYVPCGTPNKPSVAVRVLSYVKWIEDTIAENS
Data set [6] in a line: Half life in rats. The data set is classed as ADME, organism-based. The settings on record: rat, in vivo.
Data set [7] is described as follows: Volume of distribution in rats. The data set is classed as ADME, organism-based. The settings on record: rat, in vivo.

The structures appear in SMILES notation.

62 molecules from ChEMBL document CHEMBL1137970, “N,N-Dialkylated 4-(4-arylsulfonylpiperazine-1-carbonyl)-benzamidines and 4-((4-arylsulfonyl)-2-oxo-piperazin-1-ylmethyl)-benzamidines as potent factor Xa inhibitors” (Bioorg Med Chem Lett, 2004) can be followed below.

Chain of Coagulation factor X (P00742 41-179 limits assumed): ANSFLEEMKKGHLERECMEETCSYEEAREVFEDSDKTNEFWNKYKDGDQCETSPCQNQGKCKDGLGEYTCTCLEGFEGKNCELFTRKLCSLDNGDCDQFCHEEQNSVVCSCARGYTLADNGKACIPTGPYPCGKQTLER
Chain of Coagulation factor X (P00742 235-488 limits assumed): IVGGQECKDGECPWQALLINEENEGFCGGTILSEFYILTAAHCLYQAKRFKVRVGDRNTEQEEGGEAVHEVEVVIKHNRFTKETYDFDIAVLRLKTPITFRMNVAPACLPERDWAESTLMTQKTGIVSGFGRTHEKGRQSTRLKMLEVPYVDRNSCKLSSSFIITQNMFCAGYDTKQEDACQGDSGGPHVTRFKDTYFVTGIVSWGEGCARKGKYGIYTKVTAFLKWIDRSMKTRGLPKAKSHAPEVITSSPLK

One may read the IC50 as the concentration at which inhibition is half-maximal. Molecule `CN1CCN=C1c1ccc(C(=O)N2CCN(S(=O)(=O)c3cc4cc(Cl)ccc4[nH]3)CC2CC(=O)N2CCCCC2)cc1` (stereo not given) had an IC50 in data set [1] of 7 nM. On to `CN1CCN=C1c1ccc(C(=O)N2CCN(S(=O)(=O)c3cc4ccc(Cl)cc4s3)CC2CC(=O)O)cc1` (stereo not given), for which the IC50 in data set [1] was 29 nM.

With `C#CCN(C)C(=O)CC1CN(S(=O)(=O)c2cc3ccc(Cl)cc3s2)CCN1C(=O)c1ccc(C2=NCCN2C)cc1` (stereo not given), 19 nM corresponded to half-maximal inhibition in data set [1] (IC50). With `N=C(c1ccc(C(=O)N2CCN(S(=O)(=O)c3cc4cc(Cl)ccc4[nH]3)CC2)cc1)N1CCCC1`, the IC50 in data set [1] worked out at 84 nM. The same measure, in the same setting: for `CN(C)C(=O)CC1CN(S(=O)(=O)c2cc3ccc(Cl)cc3s2)CCN1C(=O)c1ccc(C2=NCCN2C)cc1` (stereo not given) the value was 7 nM. For `CN1CCN=C1c1ccc(C(=O)N2CCN(S(=O)(=O)c3cc4cc(Cl)ccc4[nH]3)CC2CC(=O)O)cc1` (stereo not given), the IC50 in data set [1] was 41 nM. Against the preceding molecule, the IC50 is about 5.9-fold higher. The same measure, in the same setting: the result for `CN(C)C(=N)c1ccc(C(=O)N2CCN(S(=O)(=O)c3cc4cc(Cl)ccc4[nH]3)CC2)cc1` reads 20 nM.

In turn, `CN1CCN=C1c1ccc(C(=O)N2CCN(S(=O)(=O)c3cc4cc(Cl)ccc4[nH]3)CC2CC(N)=O)cc1` (stereo not given) showed an IC50 in data set [1] of 18 nM. In data set [1], `N=C(c1ccc(CN2CCN(S(=O)(=O)c3cc4cc(Cl)ccc4[nH]3)CC2=O)cc1)N1CCCC1` had a 50% inhibitory concentration (IC50) of 240 nM. Against the preceding molecule, the IC50 is about 13-fold higher. On to `CN1CCN=C1c1ccc(C(=O)N2CCN(S(=O)(=O)c3cc4ccc(Cl)cc4[nH]3)CC2)cc1`, for which, in data set [1], the IC50 amounted to 590 nM. In the case of `CN1CCN=C1c1ccc(C(=O)N2CCN(S(=O)(=O)c3cc4ccc(Cl)cc4s3)CC2)cc1`, the IC50 in data set [2] is more than 10 nM; in data set [1], 9 nM. In data set [1], `CN1CCN=C1c1ccc(C(=O)N2CCN(S(=O)(=O)c3cc4cc(Cl)ccc4s3)CC2)cc1` gave an IC50 of 270 nM. The molecule `N=C(c1ccc(CN2CCN(S(=O)(=O)c3cc4ccc(Cl)cc4s3)CC2=O)cc1)N1CCC1` registered an IC50 in data set [1] of 11 nM. As a reminder, the clearance is the volume of plasma or blood freed of the substance per unit of time. One may read the bioavailability as dose-corrected exposure relative to a reference, in per cent. Read a low bioavailability as little systemic uptake. As usually defined, the half-life is how long it takes for the measured level to halve. Broadly, the Vd is the apparent volume that relates the amount in the body to the concentration in plasma or blood. A high value points to wide distribution into tissue. As for `CN1CCN=C1c1ccc(C(=O)N2CCN(S(=O)(=O)c3cc4cc(Cl)ccc4[nH]3)CC2)cc1`, in data set [3], the clearance was 42.9 mL/min/kg. Besides, the bioavailability in data set [4] was determined as 1.4%. In addition, 5800 nM corresponded to half-maximal inhibition in data set [5] (IC50). This molecule had a half-life in data set [6] of 7.8 h. This molecule also registered a Vd in data set [7] of 28.9 L/kg. In data set [1], `CN1CCN=C1c1ccc(CN2CCN(S(=O)(=O)c3cc4cc(Cl)ccc4[nH]3)CC2=O)cc1` came in with an IC50 of 57 nM. This counts as double-digit nanomolar. Consider `N=C(c1ccc(C(=O)N2CCN(S(=O)(=O)c3ccc4cc(Br)ccc4c3)CC2)cc1)N1CCCCC1`, for which half-maximal inhibition in data set [1] (IC50) was put at 160 nM.

`CN1CCN=C1c1ccc(CN2CCN(S(=O)(=O)c3cc4ccc(Cl)cc4s3)CC2=O)cc1` had a 50% inhibitory concentration (IC50) in data set [1] of 45 nM. Against the preceding molecule, the IC50 is about 3.6-fold lower. Molecule `CN1CCN=C1c1ccc(C(=O)N2CCN(S(=O)(=O)c3cc4ccc(Cl)cc4s3)CC2CC(=O)N2CCC(C(=O)O)CC2)cc1` (stereo not given) showed an IC50 in data set [1] of 8 nM. On to `CNC(=O)CC1CN(S(=O)(=O)c2cc3cc(Cl)ccc3[nH]2)CCN1C(=O)c1ccc(C2=NCCN2C)cc1` (stereo not given), for which inhibition in data set [1] was half-maximal at 11 nM (IC50). On to `N=C(c1ccc(CN2CCN(S(=O)(=O)c3cc4cc(Cl)ccc4[nH]3)CC2=O)cc1)N1CCCCC1`, for which inhibition in data set [1] was half-maximal at 150 nM (IC50). Compared with the last molecule, the IC50 is about 14-fold higher. Same read-out and setting: the result for `CN1CCN=C1c1ccc(C(=O)N2CCN(S(=O)(=O)c3cc4ccc(Cl)cc4s3)CC2CC(=O)N2CCCC2)cc1` (stereo not given) reads 6 nM; that for `N=C(c1ccc(C(=O)N2CCN(S(=O)(=O)c3cc4ccc(Cl)cc4s3)CC2)cc1)N1CCCCC1`, 71 nM; that for `N=C(c1ccc(CN2CCN(S(=O)(=O)c3cc4ccc(Cl)cc4s3)CC2=O)cc1)N1CCCCC1`, 100 nM.

`CN(C)C(=N)c1ccc(CN2CCN(S(=O)(=O)c3cc4cc(Cl)ccc4[nH]3)CC2=O)cc1` returned a bioavailability in data set [4] of 4.1%. The IC50 in data set [1] worked out at 37 nM. Turning to `CN1CCN=C1c1ccc(C(=O)N2CCN(S(=O)(=O)c3cc4ccc(Cl)cc4s3)CC2CC(=O)N2CCN(c3ccncc3)CC2)cc1` (stereo not given), in data set [1], the 50% inhibitory concentration (IC50) is 8 nM. Still for that read-out and setting: the result for `N=C(c1ccc(C(=O)N2CCN(S(=O)(=O)c3cc4cc(Cl)ccc4[nH]3)CC2)cc1)N1CCC1` reads 24 nM. For `CCN1CCN=C1c1ccc(C(=O)N2CCN(S(=O)(=O)c3cc4ccc(Cl)cc4s3)CC2)cc1`, inhibition in data set [1] was half-maximal at 36 nM (IC50). `CN1CCN=C1c1ccc(C(=O)N2CCN(S(=O)(=O)c3cc4cc(Cl)ccc4[nH]3)CC2CC(=O)N2CCOCC2)cc1` (stereo not given) displayed an IC50 in data set [1] of 11 nM. As to `N=C(c1ccc(C(=O)N2CCN(S(=O)(=O)c3ccc4cc(Br)ccc4c3)CC2)cc1)N1CCCC1`, the IC50 in data set [1] turned out to be 390 nM. In data set [1], `CN1CCN=C1c1ccc(C(=O)N2CCN(S(=O)(=O)c3cc4cc(Cl)ccc4[nH]3)CC2C(=O)O)cc1` (stereo not given) returned a concentration for half-maximal inhibition (IC50) of 12 nM.

For `CN1CCN=C1c1ccc(C(=O)N2CCN(S(=O)(=O)c3cc4cc(Cl)ccc4[nH]3)CC2CC(=O)N2CCCC2)cc1` (stereo not given), in data set [1], half-maximal inhibition (IC50) required 7 nM. On the same count and under the same terms, for `N=C(c1ccc(C(=O)N2CCN(S(=O)(=O)c3ccc4cc(Br)ccc4c3)CC2)cc1)N1CCOCC1` the value was 640 nM; for `N=C(c1ccc(CN2CCN(S(=O)(=O)c3cc4cc(Cl)ccc4[nH]3)CC2=O)cc1)N1CCC1`, 8 nM; for `N=C(N)c1ccc(C(=O)N2CCN(S(=O)(=O)c3ccc4cc(Br)ccc4c3)CC2)cc1`, 64 nM. `CCN1CCN=C1c1ccc(C(=O)N2CCN(S(=O)(=O)c3ccc4cc(Br)ccc4c3)CC2)cc1`: in data set [1], the concentration for half-maximal inhibition (IC50) was determined as 67 nM. This IC50 and that of the molecule before are within 1.5-fold of each other.

In data set [1], `COC(=O)C1CN(S(=O)(=O)c2cc3cc(Cl)ccc3[nH]2)CCN1C(=O)c1ccc(C2=NCCN2C)cc1` (stereo not given) had an IC50 of 27 nM. As for `COC(=O)CC1CN(S(=O)(=O)c2cc3ccc(Cl)cc3s2)CCN1C(=O)c1ccc(C2=NCCN2C)cc1` (stereo not given), inhibition in data set [1] was half-maximal at 13 nM (IC50). `N=C(c1ccc(CN2CCN(S(=O)(=O)c3cc4ccc(Cl)cc4s3)CC2=O)cc1)N1CCCC1` yielded an IC50 in data set [1] of 140 nM. This IC50 lies about 11-fold higher than the previous one. On the same count and under the same terms, for `CN(C)C(=N)c1ccc(C(=O)N2CCN(S(=O)(=O)c3cc4ccc(Cl)cc4s3)CC2)cc1` the value was 27 nM; for `CN1CCN=C1c1ccc(C(=O)N2CCN(S(=O)(=O)c3cc4ccc(Cl)cc4s3)CC2CC(=O)N2CCC2)cc1` (stereo not given), 10 nM. Take `CN1CCN=C1c1ccc(C(=O)N2CCN(S(=O)(=O)c3cc4cc(Cl)ccc4[nH]3)CC2CC(=O)N2CCN(c3ccncc3)CC2)cc1` (stereo not given): in data set [1], inhibition was half-maximal at 8 nM (IC50). As to `CN1CCCN=C1c1ccc(C(=O)N2CCN(S(=O)(=O)c3ccc4cc(Br)ccc4c3)CC2)cc1`, in data set [1], the IC50 amounted to 430 nM. Consider `C#CCN(C)C(=O)CC1CN(S(=O)(=O)c2cc3cc(Cl)ccc3[nH]2)CCN1C(=O)c1ccc(C2=NCCN2C)cc1` (stereo not given), for which, in data set [1], the IC50 amounted to 14 nM. `CN1CCN=C1c1ccc(C(=O)N2CCN(C(=O)c3cc4cc(Cl)ccc4[nH]3)CC2)cc1` displayed an IC50 in data set [1] of more than 11000 nM. `COC(=O)C1CCN(C(=O)CC2CN(S(=O)(=O)c3cc4ccc(Cl)cc4s3)CCN2C(=O)c2ccc(C3=NCCN3C)cc2)CC1` (stereo not given): it took 8 nM to reach half-maximal inhibition in data set [1] (IC50).

As for `O=C(c1ccc(C2=NCCCN2)cc1)N1CCN(S(=O)(=O)c2ccc3cc(Br)ccc3c2)CC1`, the midpoint of inhibition in data set [1], the IC50, lay at 1300 nM. In turn, `N=C(c1ccc(C(=O)N2CCN(S(=O)(=O)c3cc4ccc(Cl)cc4s3)CC2)cc1)N1CCC1` showed an IC50 in data set [1] of 25 nM.

`COC(=O)CC1CN(S(=O)(=O)c2cc3cc(Cl)ccc3[nH]2)CCN1C(=O)c1ccc(C2=NCCN2C)cc1` (stereo not given) showed an IC50 in data set [1] of 3 nM.

As for `CN1CCN=C1c1ccc(C(=O)N2CCN(S(=O)(=O)c3cc4ccc(Cl)cc4s3)CC2CC(=O)N2CCOCC2)cc1` (stereo not given), the IC50 in data set [2] was determined as 3.2 nM; in data set [1] it was 15 nM. Consider `CCN(C)C(=N)c1ccc(C(=O)N2CCN(S(=O)(=O)c3cc4ccc(Cl)cc4s3)CC2)cc1`, for which the IC50 in data set [1] stood at 90 nM.

The molecule `CN(C)C(=N)c1ccc(CN2CCN(S(=O)(=O)c3cc4ccc(Cl)cc4s3)CC2=O)cc1` came in with a bioavailability in data set [4] of less than 1%. Moreover, in data set [1], the midpoint of inhibition, the IC50, lay at 30 nM. Take `CN1CCN=C1c1ccc(C(=O)N2CCN(S(=O)(=O)c3cc4ccc(Cl)cc4s3)CC2CC(=O)N2CCCCC2)cc1` (stereo not given): it took 6 nM to reach half-maximal inhibition in data set [1] (IC50). This counts as single-digit nanomolar.

As to `O=C(c1ccc(C2=NCCN2)cc1)N1CCN(S(=O)(=O)c2ccc3cc(Br)ccc3c2)CC1`, in data set [1], half-maximal inhibition (IC50) required 530 nM. This IC50 lies about 88-fold higher than the previous one. With `N=C(c1ccc(C(=O)N2CCN(S(=O)(=O)c3cc4cc(Cl)ccc4[nH]3)CC2)cc1)N1CCCCC1`, the IC50 in data set [1] was determined as 120 nM. The same measure, in the same setting: the result for `CNC(=N)c1ccc(C(=O)N2CCN(S(=O)(=O)c3ccc4cc(Br)ccc4c3)CC2)cc1` reads 230 nM; that for `CCN1CCN=C1c1ccc(C(=O)N2CCN(S(=O)(=O)c3cc4cc(Cl)ccc4[nH]3)CC2)cc1`, 12 nM; that for `CN(C)C(=N)c1ccc(C(=O)N2CCN(S(=O)(=O)c3ccc4cc(Br)ccc4c3)CC2)cc1`, 230 nM.

In data set [1], `CCN(C)C(=N)c1ccc(C(=O)N2CCN(S(=O)(=O)c3cc4cc(Cl)ccc4[nH]3)CC2)cc1` gave an IC50 of 27 nM. Compared with the last molecule, the IC50 is about 8.5-fold lower. `CN(C)C(=O)CC1CN(S(=O)(=O)c2cc3cc(Cl)ccc3[nH]2)CCN1C(=O)c1ccc(C2=NCCN2C)cc1` (stereo not given): the IC50 in data set [1] amounted to 10 nM. Molecule `N=C(c1ccc(C(=O)N2CCN(S(=O)(=O)c3cc4ccc(Cl)cc4s3)CC2)cc1)N1CCCC1` displayed an IC50 in data set [1] of 70 nM. `CN1CCN=C1c1ccc(C(=O)N2CCN(S(=O)(=O)c3ccc4cc(Br)ccc4c3)CC2)cc1` gave an IC50 in data set [1] of 31 nM. `CN1CCN=C1c1ccc(C(=O)N2CCN(S(=O)(=O)c3cc4cc(Cl)ccc4[nH]3)CC2CC(=O)N2CCC2)cc1` (stereo not given) gave an IC50 in data set [1] of 5 nM.
